Legend:
[1] = Health-related quality of life and symptom assessment in MS patients (MS-modified MOS-HIV, PGWB, MS Symptom Checklist); type: in vivo, human
Description: To evaluate the impact of drug-related change on overall health and symptom burden, MS patients were followed routinely with both recognized and newly developed health-related quality of life instruments: an MS-modified version of the 30-item Medical Outcomes Study-HIV Survey (MOS-HIV) originally developed by Dr. Albert Wu, the 22-item Psychological General Well-Being Schedule (PGWB) developed by Dr. Harold Dupuy, and the MS Symptom Checklist developed for this study. These instruments, of which the first two have previously been validated and shown to be responsive to change in other disease states, allow quantitation of self-reported symptom variation (see Brook et al., Medical Care 17(7 Suppl.) 1-54 (1979), Fazio "A Concurrent Validation Survey of the NCHS General Well-Being Schedule", US Dept of Health, Education and Welfare, National Center for Health Statistics, Hyattsville, Maryland, USA 1977, McDowell and Newell "Measuring Health: A Guide to Rating Scales and Questionnaires", Oxford University Press 1987, Stewart et al., Medical Care 26 724-35 (1988), JAMA 262 907-13 (1989), and "Measuring Functioning and Well-Being of Patients with Chronic Conditions: The Medical Outcomes Study Approach", Duke University Press 1992, Wachtel et al., Ann. Int. Med. 116 129-137 (1992), Ware et al., "Conceptualization and Measurement of Health for Adults in the Health Insurance Survey, Vol III: Mental Health", Rand Corporation 1979, and Wu et al., Medical Care 29(8) 786-98 (1991)).
Given the small number of patients involved in this report, some of whom received Peptide T in an on-off-on design, it would not be expected that statistical significance might be obtained. To facilitate establishment of any trends, three patients who stopped taking Peptide T and then restarted the drug some weeks later after a new baseline period appear twice in the following analysis. In this manner, 8 baseline and repeated measures (at weeks 0, 4, 8, and 12) were defined and analysed using two-tailed paired t-tests: see Table XIV.

Molt-4 cells = experiment: PBMC mediated killing of Molt-4 cells; type: cell-based, human; details: Peptide T added on the first day of a four day culture
Description: When PBMC are mixed with allogeneic Molt-4 cells the growth of Molt-4 is inhibited (Figure 6). Alloreactive PBMC recognise Molt-4 as foreign and generate cytotoxic effector cells that kill Molt-4. Molt-4 is not a cytotoxic cell line and can not generate alloreactive effector cells. […] It is not possible to distinguish growth of alloreactive T cells from the growth of Molt-4 survivors since neither the growth of alloreactive T cells (Figure 5) nor the growth of Molt-4 (Table IX) would be affected by Peptide T.

HIV = details: 100 nM Peptide T; cited from earlier work
PBMC [2] = type: cell-based, human
PBMC [3] = experiment: Mitogen induced proliferation of PBMC, 3H thymidine uptake, 6 day culture (Example 8); type: cell-based, human
Description: PBMC (10^5) were cultured in 200 µl RPMI containing 10% heat inactivated foetal bovine serum, 2 mM L-glutamine and gentamycin 100 µg/ml with mitogen and Peptide T added on the first day of culture. Growth was assessed in triplicate by ^3H thymidine uptake following a 6 day incubation and expressed as a proliferation index (cpm in presence of mitogen ± Peptide T […] cpm in absence of stimulation). A proliferation index >1.00 implies growth beyond that in media alone. At physiologically obtainable concentrations, Peptide T inhibits proliferation of normal (HIV seronegative) peripheral blood mononuclear cells (PBMC) without causing significant cytotoxicity as shown in Table III. This effect is long term in that Peptide T given on the first day of a six day culture will inhibit mitogen induced proliferation.

[4] = Treatment of multiple sclerosis patients, case reports (Examples 1 to 4); type: in vivo, human
Description: […] They were treated with prednisone and later with physiotherapy, with little effect. […] Tone was increased in both lower limbs and they had bilateral ankle clonus. Deep tendon reflexes were 2+ in the arms, 3+ in both knees and ankles and the plantar responses were extensor.
They were started on Peptide T, 8.5 mg subcutaneously daily. […] Their frequency of nocturia was reduced, fine motor control improved, stuttering decreased, their legs were less spastic and they could stand with minimal support. […] The patient has remained stable rather than following their normal progressive downhill course for the months they have remained on Peptide T.
A person was diagnosed with optic neuritis secondary to multiple sclerosis after presenting with numbness, impaired motor function, and blurred vision (20/300 bilaterally). Their somatic neurological examination was within normal limits. Minor episodes of numbness and impaired speech, balance and co-ordination had occurred over 6 months, as well as headache and loss of vision.
Peptide T therapy was started.
A person with their first episode of multiple sclerosis as manifest by optic neuritis and complete blindness in the right eye for 2 weeks, numbness in their right leg and then both legs. […] They had worsening of their ataxias with blurred vision and oscillopsia and was given prednisone 80 mg per day. […] Findings were typical of demyelination consistent with MS. […] The tone was increased in their lower limbs and they had non-sustained ankle clonus bilaterally. Their knee jerk was increased on the right compared to the left. Plantar responses were both upgoing. They had decreased position, vibration, light touch and cold sensation in the feet compared to the hands.
About 2 months later the patient was started on Peptide T 8.5 mg subcutaneously daily. […] They experienced improved feelings in their fingers, fine movements of their hands and improved cognitive function.
A person with a history of dizziness, ataxia, episodes of vertigo, impairment of motor function and generalised weakness of the legs was treated with dilantin and admitted to hospital. […] They were reassessed about 2 years later for episodes of dizziness, and complaints of leg spasms. […] Plantar response was downgoing and they had upwards gaze vertical nystagmus as previously noted.

Structure (SMILES): C[C@@H](N)C(=O)N[C@@H](CO)C(=O)N[C@H](C(=O)N[C@H](C(=O)N[C@H](C(=O)N[C@@H](CC(N)=O)C(=O)N[C@@H](Cc1ccc(O)cc1)C(=O)N[C@H](C(N)=O)[C@@H](C)O)[C@@H](C)O)[C@@H](C)O)[C@@H](C)O [Peptide T, D-Ala-Ser-Thr-Thr-Thr-Asn-Tyr-Thr-NH2]
- malaise ([1]; 4 and 8 weeks): statistacally significant
- forgetfulness and slowness in thinking ([1]; human, in vivo): trend towards improvement
- Mean improvements in measures of energy ([1]; week 12, all three instruments): exceeded 2 standard deviations
- physical discomfort, mental health and health distress (MS-modified MOS-HIV) ([1]; weeks 4, 8 and 12): either a trend or statistically significant improvement
- energy, general quality of life, well-being and unweighted summary score (MS-modified MOS-HIV) ([1]; weeks 4, 8 and 12 vs baseline, two-tailed paired t-tests): Improvement was statistically significant
- PBMC-mediated inhibition of Molt-4 proliferation (Molt-4 cells): remains unaffected
- reduction of reverse transcriptase (HIV): ninefold reduction
- lymphocytes responding to recall antigen (MMR), antibodies to CD3 or the superantigens SEB and TSST-1 (PBMC [2]): negligible effects
- Proliferation Index ± SD (PBMC [3]; ConA 25 µg/ml, Peptide T 10^-5 mol/l, without Peptide T 4.55±0.66): 2.72±1.20
- Proliferation Index ± SD (PBMC [3]; ConA 25 µg/ml, Peptide T 10^-7 mol/l, without Peptide T 4.55±0.66): 3.19±0.06
- Proliferation Index ± SD (PBMC [3]; ConA 25 µg/ml, Peptide T 10^-9 mol/l, without Peptide T 4.55±0.66): 1.98±0.04
- Proliferation Index ± SD (PBMC [3]; ConA 25 µg/ml, Peptide T 10^-12 mol/l, without Peptide T 4.55±0.66): 1.69±0.48
- Proliferation Index ± SD (PBMC [3]; Media (absence of mitogens), Peptide T 10^-5 mol/l): 1.14±0.15
- Proliferation Index ± SD (PBMC [3]; Media (absence of mitogens), Peptide T 10^-7 mol/l): 0.73±0.16
- Proliferation Index ± SD (PBMC [3]; Media (absence of mitogens), Peptide T 10^-9 mol/l): 2.17±1.10
- Proliferation Index ± SD (PBMC [3]; Media (absence of mitogens), Peptide T 10^-12 mol/l): 1.52±0.15
- Proliferation Index ± SD (PBMC [3]; PHA 25 µg/ml, Peptide T 10^-5 mol/l, without Peptide T 317.0±41.0): 149.0±38.4
- Proliferation Index ± SD (PBMC [3]; PHA 25 µg/ml, Peptide T 10^-7 mol/l, without Peptide T 317.0±41.0): 123.6±18.1
- Proliferation Index ± SD (PBMC [3]; PHA 25 µg/ml, Peptide T 10^-9 mol/l, without Peptide T 317.0±41.0): 78.6±23.1
- Proliferation Index ± SD (PBMC [3]; PHA 25 µg/ml, Peptide T 10^-12 mol/l, without Peptide T 317.0±41.0): 103.8±22.8
- Proliferation Index ± SD (PBMC [3]; PWM 25 µg/ml, Peptide T 10^-7 mol/l, without Peptide T 7.47±0.50): 4.47±0.36
- Proliferation Index ± SD (PBMC [3]; PWM 25 µg/ml, Peptide T 10^-9 mol/l, without Peptide T 7.47±0.50): 4.69±0.42
- Proliferation Index ± SD (PBMC [3]; PWM 25 µg/ml, Peptide T 10^-12 mol/l, without Peptide T 7.47±0.50): 4.15±0.23
- intellectual and motor functioning ([4]; Example 1: person with MS, 8.5 mg subcutaneously daily, within a few weeks, sustained over 6 months): marked symptomatic improvement
- visual acuity bilaterally ([4]; Example 2: person, optic neuritis secondary to MS, six days after start, before therapy 20/300 bilaterally): 21/30
- fatigue, ataxia and fine motor function after restarting ([4]; Example 3: after stopping and restarting Peptide T): remarkable improvement
- patient-reported symptoms after start of therapy ([4]; Example 3: person with MS, 8.5 mg subcutaneously daily, within 1 to 2 weeks): subjective improvement
- patient-reported symptoms ([4]; Example 4: person, 8.5 mg subcutaneously daily, within 10 days): increased energy and intellectual function, and improved vision

Reference: patent EP0960886B1, “Peptide T and related peptides in the treatment of inflammation, including multiple sclerosis” (priority 1992, dated 1993)
